Positions of bridges follow the written chain, without caps; N, C: chain ends. Non-standard residues stand in square brackets, D forms with d. Residues, ends and D or L forms follow the SMILES beside them. R8 = C=CCCCCCC[C@@](C)(N)C(=O)O; Cit = NC(=O)NCCC[C@H](N)C(=O)O; S5 = C=CCCC[C@](C)(N)C(=O)O
What was measured:
[1] = test system: SK-MEL-28 melanoma cells; experiment: Caspase-3/7 activation (Caspase-Glo 3/7), SK-MEL-28; format: cell-based; details: SK-MEL-28 cells, 40 μM
Protocol: (§1) Cancer cells were cultured using a standard culture medium containing 10% fetal bovine serum (FBS) and penicillin-streptomycin (A375P: DMEM; SK-MEL-2, SK-MEL-28: EMEM). Cells were plated in 96-well plates (5×10^3 cells per well) and, after overnight incubation, treated with the indicated concentrations of Stapled Peptides in the corresponding medium supplemented with 5% FBS for the indicated durations. Cell viability and caspase-3/7 activation was measured using CellTiter-Glo and Caspase-Glo 3/7 chemiluminescence reagents (Promega), respectively. Luminescence was detected by a microplate reader (Spectramax M5, Molecular Devices).

[2] = test system: SK-MEL-2 melanoma cells; experiment: Caspase-3/7 activation (Caspase-Glo 3/7), SK-MEL-2; format: cell-based; details: SK-MEL-2 cells, 40 μM
Protocol: as §1

[3] = test system: A375-P melanoma cells; experiment: Caspase-3/7 activation (Caspase-Glo 3/7), A375-P; format: cell-based; details: A375-P cells, 40 μM
Protocol: as §1

[4] = test system: Mcl-1, Bcl-xL, Bcl-2; experiment: BCL-2 family selectivity profile; format: binding
From the text: The binding spectrum of stapled BIM BH3 peptides were tuned for BCL-2 family selectivity. […] ABT-199 is venetoclax, and † represents values reported in the literature.

[5] = test system: ABT-199 resistant Burkitt lymphoma Raji cells; experiment: WST-1 anti-proliferative activity in Raji cells; format: cell-based, Human; details: TABLE 9; Raji cell proliferation
From the text: WST-1 is a cell proliferation reagent that is used in colorimetric assays designed to measure the relative proliferation rates of cells in culture. The assay is based on the conversion of the tetrazolium salt WST-1 into a colored dye by mitochondrial dehydrogenase enzymes. The soluble salt is released into the media. Within a given time period, the reaction produces a color change that is directly proportional to the amount of mitochondrial dehydrogenase in a culture. The WST-1 assay measures the net metabolic activity of cells.

[6] = test system: SK-MEL-28 melanoma cells; experiment: Cell viability (CellTiter-Glo), SK-MEL-28; format: cell-based; details: 40 μM
Protocol: as §1

[7] = test system: SK-MEL-2 melanoma cells; experiment: Cell viability (CellTiter-Glo), SK-MEL-2; format: cell-based; details: 40 μM
Protocol: as §1

[8] = test system: A375-P melanoma cells; experiment: Cell viability (CellTiter-Glo), A375-P; format: cell-based; details: 40 μM
Protocol: as §1

[9] = biological target: Bcl-2 (Homo sapiens, UniProt P10415); experiment: Ki determination for Bcl-2 (BCL-2 family binding spectrum); details: TABLE 6; read-out: Bcl-2 Ki
How it was run: (§2)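 Competitive fluorescence polarization: compounds (1 nM–1 mM) with 25 nM fluoresceinated peptidomimetic macrocycle and 50 nM protein in 140 mM NaCl, 50 mM Tris-HCl pH 7.4, 30 min at room temperature. Constants from nonlinear regression.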

[10] = biological target: Mcl-1 (Homo sapiens, UniProt Q07820); experiment: Ki determination for Mcl-1 (BCL-2 family binding spectrum); details: TABLE 6; read-out: Mcl-1 Ki
How it was run: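 Competitive fluorescence polarization assay in which compounds displace a fluoresceinated peptidomimetic macrocycle tracer from Mcl-1. Affinity constants were obtained by nonlinear regression.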

[11] = biological target: Bcl-xL (Homo sapiens, UniProt Q07817); experiment: Ki determination for Bcl-xL (BCL-2 family binding spectrum); details: TABLE 6; read-out: Bcl-xL Ki
How it was run: as §2

Sequence of Mcl-1 (Q07820 whole entry, species assumed): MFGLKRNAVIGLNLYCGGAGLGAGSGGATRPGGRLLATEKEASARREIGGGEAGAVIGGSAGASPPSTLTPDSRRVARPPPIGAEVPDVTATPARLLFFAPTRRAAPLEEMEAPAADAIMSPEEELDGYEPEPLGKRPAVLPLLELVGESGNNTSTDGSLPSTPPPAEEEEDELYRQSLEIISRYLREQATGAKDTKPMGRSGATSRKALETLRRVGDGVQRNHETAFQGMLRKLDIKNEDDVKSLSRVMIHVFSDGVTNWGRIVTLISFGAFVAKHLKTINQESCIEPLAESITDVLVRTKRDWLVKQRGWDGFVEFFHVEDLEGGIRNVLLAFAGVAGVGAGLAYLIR
Sequence of Bcl-xL (Q07817 whole entry, species assumed): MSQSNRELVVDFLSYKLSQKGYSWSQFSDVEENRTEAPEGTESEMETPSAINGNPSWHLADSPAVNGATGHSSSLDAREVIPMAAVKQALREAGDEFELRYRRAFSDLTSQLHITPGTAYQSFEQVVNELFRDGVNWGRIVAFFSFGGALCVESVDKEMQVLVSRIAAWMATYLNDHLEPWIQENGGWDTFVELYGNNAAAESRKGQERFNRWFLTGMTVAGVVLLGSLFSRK
Sequence of Bcl-2 (P10415 whole entry, species assumed): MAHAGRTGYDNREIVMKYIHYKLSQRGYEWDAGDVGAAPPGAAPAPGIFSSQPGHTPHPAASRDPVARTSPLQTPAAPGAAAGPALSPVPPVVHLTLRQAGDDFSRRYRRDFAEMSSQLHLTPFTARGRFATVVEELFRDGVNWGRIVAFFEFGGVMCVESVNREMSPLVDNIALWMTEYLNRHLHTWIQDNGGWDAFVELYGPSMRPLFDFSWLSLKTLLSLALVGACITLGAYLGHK

| SMILES | Ki [9] [nM] | Profile ([4]; TABLE 6) | Ki [10] [nM] | Ki [11] [nM] | other results |
| --- | --- | --- | --- | --- | --- |
| CC[C@H](C)[C@H](NC(C)=O)C(=O)N[C@@H](Cc1c[nH]c2ccccc12)C(=O)N[C@H](C(=O)N[C@@H](C)C(=O)N[C@@H](CCC(N)=O)C(=O)N[C@@H](CCC(=O)O)C(=O)N[C@@H](CC(C)C)C(=O)N[C@@H](CCCNC(=N)N)C(=O)N[C@@]1(C)CCCC=CCCC[C@@](C)(C(=O)N[C@@H](Cc2ccccc2)C(=O)N[C@@H](CC(N)=O)C(=O)N[C@@H](C)C(=O)N[C@@H](Cc2ccc(O)cc2)C(=O)N[C@@H](Cc2ccc(O)cc2)C(=O)N[C@@H](C)C(=O)N[C@@H](CCCNC(=N)N)C(=O)N[C@@H](CCCNC(=N)N)C(N)=O)NC(=O)[C@H](CC(=O)O)NC(=O)CNC(=O)[C@H]([C@@H](C)CC)NC1=O)[C@@H](C)CC [BIM SAHBA1] |  |  |  |  | apoptosis induction [1]: neither BIM SAHBA1 nor Aileron peptide 1 affected proliferation and apoptosis induction; apoptosis induction [2]: neither BIM SAHBA1 nor Aileron peptide 1 affected proliferation and apoptosis induction; apoptosis induction [3]: neither BIM SAHBA1 nor Aileron peptide 1 affected proliferation and apoptosis induction; Profile ([4]; TABLE 8): Pan-selective; IC50 [5]: 23700 nM; % cell viability ([6]; SK-MEL-28, 5% serum): had no effect on % viability; proliferation ([6]; SK-MEL-28 cells): neither BIM SAHBA1 nor Aileron peptide 1 affected proliferation; % cell viability ([7]; SK-MEL-2, 5% serum): had no effect on % viability; proliferation ([7]; SK-MEL-2 cells): neither BIM SAHBA1 nor Aileron peptide 1 affected proliferation; proliferation ([8]; A375-P cells): neither BIM SAHBA1 nor Aileron peptide 1 affected proliferation; % cell viability ([8]; A375-P, 5% serum): had no effect on % viability |
| CC[C@H](C)[C@H](NC(C)=O)C(=O)N[C@@H](Cc1c[nH]c2ccccc12)C(=O)N[C@H](C(=O)N[C@@H](C)C(=O)N[C@@H](CCC(N)=O)C(=O)N[C@@H](C)C(=O)N[C@@H](CC(C)C)C(=O)N[C@@H](CCCNC(=N)N)C(=O)N[C@]1(C)CCCCCCC=CCCC[C@@](C)(C(=O)N[C@@H](Cc2ccc(O)cc2)C(=O)N[C@@H](Cc2ccc(O)cc2)C(=O)N[C@@H](C)C(N)=O)NC(=O)[C@H](CC(N)=O)NC(=O)[C@H](Cc2ccccc2)NC(=O)[C@H](CCC(=O)O)NC(=O)[C@H](CC(=O)O)NC(=O)CNC(=O)[C@H]([C@@H](C)CC)NC1=O)[C@@H](C)CC [Peptide #1] (Ac-IWIAQALR[R8]IGDEFN[S5]YYA-NH2; staple 9-16) | 3.2 | Pan-selective | 1.8 | 1.4 |  |
| CC[C@H](C)[C@H](NC(C)=O)C(=O)N[C@@H](Cc1c[nH]c2ccccc12)C(=O)N[C@H](C(=O)N[C@@H](C)C(=O)N[C@@H](CCC(N)=O)C(=O)N[C@@H](C)C(=O)N[C@@H](CC(C)C)C(=O)N[C@@H](CCCNC(=N)N)C(=O)N[C@]1(C)CCCCCCC=CCCC[C@@](C)(C(=O)N[C@@H](Cc2ccc(O)cc2)C(=O)N[C@@H](Cc2ccc(O)cc2)C(=O)N[C@@H](C)C(N)=O)NC(=O)[C@H](CC(N)=O)NC(=O)[C@H](Cc2ccccc2)NC(=O)[C@H](CCC(N)=O)NC(=O)[C@H](CC(=O)O)NC(=O)CNC(=O)[C@H]([C@@H](C)CC)NC1=O)[C@@H](C)CC [compound 2] (Ac-IWIAQALR[R8]IGDQFN[S5]YYA-NH2; staple 9-16) | 67 | Pan-selective | 5.2 | 12 |  |
| CC[C@H](C)[C@H](NC(C)=O)C(=O)N[C@@H](Cc1c[nH]c2ccccc12)C(=O)N[C@H](C(=O)N[C@@H](C)C(=O)N[C@@H](C)C(=O)N[C@@H](C)C(=O)N[C@@H](CC(C)C)C(=O)N[C@@H](CCCNC(=N)N)C(=O)N[C@]1(C)CCCCCCC=CCCC[C@@](C)(C(=O)N[C@@H](Cc2ccc(O)cc2)C(=O)N[C@@H](Cc2ccc(O)cc2)C(=O)N[C@@H](C)C(N)=O)NC(=O)[C@H](CC(N)=O)NC(=O)[C@H](Cc2ccccc2)NC(=O)[C@H](CCC(=O)O)NC(=O)[C@H](CC(=O)O)NC(=O)CNC(=O)[C@H]([C@@H](C)CC)NC1=O)[C@@H](C)CC [compound 3] (Ac-IWIAAALR[R8]IGDEFN[S5]YYA-NH2; staple 9-16) | 6 | Pan-selective | 1 | 1 |  |
| CC[C@H](C)[C@H](NC(C)=O)C(=O)N[C@@H](Cc1c[nH]c2ccccc12)C(=O)N[C@H](C(=O)N[C@@H](C)C(=O)N[C@@H](C)C(=O)N[C@@H](C)C(=O)N[C@@H](CC(C)C)C(=O)N[C@@H](CCCNC(=N)N)C(=O)N[C@]1(C)CCCCCCC=CCCC[C@@](C)(C(=O)N[C@@H](Cc2ccc(O)cc2)C(=O)N[C@@H](Cc2ccc(O)cc2)C(=O)N[C@@H](C)C(N)=O)NC(=O)[C@H](CC(N)=O)NC(=O)[C@H](Cc2ccccc2)NC(=O)[C@H](CCC(N)=O)NC(=O)[C@H](CC(=O)O)NC(=O)CNC(=O)[C@H]([C@@H](C)CC)NC1=O)[C@@H](C)CC [compound 4] (Ac-IWIAAALR[R8]IGDQFN[S5]YYA-NH2; staple 9-16) | 22 | Pan-selective | 6 | 4 |  |
| CC[C@H](C)[C@H](NC(C)=O)C(=O)N[C@@H](Cc1c[nH]c2ccccc12)C(=O)N[C@H](C(=O)N[C@@H](C)C(=O)N[C@@H](CCC(N)=O)C(=O)N[C@@H](C)C(=O)N[C@@H](CC(C)C)C(=O)N[C@@H](CCCNC(N)=O)C(=O)N[C@]1(C)CCCCCCC=CCCC[C@@](C)(C(=O)N[C@@H](Cc2ccc(O)cc2)C(=O)N[C@@H](Cc2ccc(O)cc2)C(=O)N[C@@H](C)C(N)=O)NC(=O)[C@H](CC(N)=O)NC(=O)[C@H](Cc2ccccc2)NC(=O)[C@H](C)NC(=O)[C@H](CC(=O)O)NC(=O)CNC(=O)[C@H]([C@@H](C)CC)NC1=O)[C@@H](C)CC [compound 5] (Ac-IWIAQAL[Cit][R8]IGDAFN[S5]YYA-NH2; staple 9-16) | 212 | Mcl-1 selective | 7.5 | 110 |  |
| CC[C@H](C)[C@H](NC(C)=O)C(=O)N[C@@H](Cc1c[nH]c2ccccc12)C(=O)N[C@H](C(=O)N[C@@H](C)C(=O)N[C@@H](CCC(N)=O)C(=O)N[C@@H](C)C(=O)N[C@@H](CC(C)C)C(=O)N[C@@H](CCCNC(N)=O)C(=O)N[C@]1(C)CCCCCCC=CCCC[C@@](C)(C(=O)N[C@@H](Cc2ccc(O)cc2)C(=O)N[C@@H](Cc2ccc(O)cc2)C(=O)N[C@@H](C)C(N)=O)NC(=O)[C@H](CC(N)=O)NC(=O)[C@H](Cc2ccccc2)NC(=O)[C@H](CCC(N)=O)NC(=O)[C@H](CC(=O)O)NC(=O)CNC(=O)[C@H]([C@@H](C)CC)NC1=O)[C@@H](C)CC [compound 6] (Ac-IWIAQAL[Cit][R8]IGDQFN[S5]YYA-NH2; staple 9-16) | 88.2 | Mcl-1 selective | 1.7 | 28.8 |  |
| CC[C@H](C)[C@H](NC(C)=O)C(=O)N[C@@H](Cc1c[nH]c2ccccc12)C(=O)N[C@H](C(=O)N[C@@H](C)C(=O)N[C@@H](CCC(N)=O)C(=O)N[C@@H](C)C(=O)N[C@@H](CC(C)C)C(=O)N[C@@H](CCCNC(=N)N)C(=O)N[C@]1(C)CCCCCCC=CCCC[C@@](C)(C(=O)N[C@@H](Cc2ccc(O)cc2)C(=O)N[C@@H](Cc2ccc(O)cc2)C(=O)N[C@@H](C)C(N)=O)NC(=O)[C@H](CC(N)=O)NC(=O)[C@H](C)NC(=O)[C@H](C)NC(=O)[C@H](CC(=O)O)NC(=O)CNC(=O)[C@H]([C@@H](C)CC)NC1=O)[C@@H](C)CC [compound 7] (Ac-IWIAQALR[R8]IGDAAN[S5]YYA-NH2; staple 9-16) | 140 | Mcl-1 selective | 7.5 | 402 |  |
| CC[C@H](C)[C@H](NC(C)=O)C(=O)N[C@@H](Cc1c[nH]c2ccccc12)C(=O)N[C@H](C(=O)N[C@@H](C)C(=O)N[C@@H](CCC(N)=O)C(=O)N[C@@H](C)C(=O)N[C@@H](CC(C)C)C(=O)N[C@@H](CCCNC(=N)N)C(=O)N[C@]1(C)CCCCCCC=CCCC[C@@](C)(C(=O)N[C@@H](Cc2ccc(O)cc2)C(=O)N[C@@H](Cc2ccc(O)cc2)C(=O)N[C@@H](C)C(N)=O)NC(=O)[C@H](CC(N)=O)NC(=O)[C@H](Cc2ccccc2)NC(=O)[C@H](CCC(N)=O)NC(=O)[C@H](CC(=O)O)NC(=O)CNC(=O)[C@H](C)NC1=O)[C@@H](C)CC [compound 10] (Ac-IWIAQALR[R8]AGDQFN[S5]YYA-NH2; staple 9-16) | 4.8 | Bcl-xL/Bcl-2 selective | 122 | 1.9 |  |
